Laboratory results from patent publication US9149038B2, “4-amino-6-(heterocyclic)picolinates and 6-amino-2-(heterocyclic)pyrimidine-4-carboxylates and their use as herbicides” (Dow AgroSciences LLC, priority 2013, dated 2015).
Like-named read-outs stand apart in the source and are kept apart here.

Tests used:
[1] = test system: Key Grass and Sedge Weeds as well as Grass Crops; test: Post-Emergent Test II: postemergent herbicidal activity, visual rating after 14 d (Table 8); assay type: in vivo; conditions: post-emergence, 336 h; for pest or weed control at 35 g/ha: 35 g ai/ha; for pest or weed control at 70 g/ha: 70 g ai/ha; for pest or weed control at 140 g/ha: 140 g ai/ha
Procedure, shortened: (§1)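 Post-emergence foliar spray, 187 L/ha, first/second true leaf stage plants in potting mix (pH 6.0-6.8). Rates: top rate and 2-fold serial dilutions to 1/16×. Solvent-blank controls. Readout: visual % kill at 14 d.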

[2] = test system: Key Broadleaf Weed and Crop Species; test: Post-Emergent Test II: postemergent herbicidal activity, visual rating after 14 d (Table 7); assay type: in vivo; conditions: post-emergence, 336 h; for pest or weed control at 35 g/ha: 35 g ai/ha; for pest or weed control at 70 g/ha: 70 g ai/ha; for pest or weed control at 140 g/ha: 140 g ai/ha
Procedure, shortened: as §1

[3] = barnyardgrass (Echinochloa crus-galli), read-out: Visual Growth Reduction (%) 14 Days After Application ECHCG
[4] = giant foxtail (Setaria faberi), read-out: Visual Growth Reduction (%) 14 Days After Application SETFA
[5] = maize, corn (Zea mays), read-out: Visual Growth Reduction (%) 14 Days After Application ZEAMX
[6] = rice (Oryza sativa), read-out: Visual Growth Reduction (%) 14 Days After Application ORYSA
[7] = wheat, spring (Triticum aestivum), read-out: Visual Growth Reduction (%) 14 Days After Application TRZAS
[8] = yellow nutsedge (Cyperus esculentus), read-out: Visual Growth Reduction (%) 14 Days After Application CYPES
[9] = lambsquarters (Chenopodium album), read-out: Visual Growth Reduction (%) 14 Days After Application CHEAL
[10] = oilseed rape, canola (Brassica napus), read-out: Visual Growth Reduction (%) 14 Days After Application BRSNN
[11] = redroot pigweed (Amaranthus retroflexus), read-out: Visual Growth Reduction (%) 14 Days After Application AMARE
[12] = sunflower (Helianthus annuus), read-out: Visual Growth Reduction (%) 14 Days After Application HELAN
[13] = velvetleaf (Abutilon theophrasti), read-out: Visual Growth Reduction (%) 14 Days After Application ABUTH
[14] = wild poinsettia (Euphorbia heterophylla), read-out: Visual Growth Reduction (%) 14 Days After Application EPHHL

Nc1c(F)c(-c2ccc3c(c2)OC(F)(F)O3)nc(C(=O)O)c1Cl [Compound 7]
pest or weed control at 35 g/ha [1, 3]: 95 to 100%
pest or weed control at 70 g/ha [1, 3]: 95 to 100%
pest or weed control at 140 g/ha [1, 3]: 95 to 100%
pest or weed control at 35 g/ha [1, 4]: 95 to 100%
pest or weed control at 70 g/ha [1, 4]: 95 to 100%
pest or weed control at 140 g/ha [1, 4]: 95 to 100%
pest or weed control at 35 g/ha [1, 5]: 95 to 100%
pest or weed control at 70 g/ha [1, 5]: 95 to 100%
pest or weed control at 140 g/ha [1, 5]: 95 to 100%
pest or weed control at 35 g/ha [1, 6]: 30 to 44%
pest or weed control at 70 g/ha [1, 6]: 30 to 44%
pest or weed control at 140 g/ha [1, 6]: 60 to 74%
pest or weed control at 35 g/ha [1, 7]: 45 to 59%
pest or weed control at 70 g/ha [1, 7]: 60 to 74%
pest or weed control at 140 g/ha [1, 7]: 60 to 74%
pest or weed control at 35 g/ha [1, 8]: 95 to 100%
pest or weed control at 70 g/ha [1, 8]: 95 to 100%
pest or weed control at 140 g/ha [1, 8]: 95 to 100%
pest or weed control at 35 g/ha [2, 9]: 95 to 100%
pest or weed control at 70 g/ha [2, 9]: 95 to 100%
pest or weed control at 140 g/ha [2, 9]: 95 to 100%
pest or weed control at 35 g/ha [2, 10]: 85 to 94%
pest or weed control at 70 g/ha [2, 10]: 85 to 94%
pest or weed control at 140 g/ha [2, 10]: 95 to 100%
pest or weed control at 35 g/ha [2, 11]: 75 to 84%
pest or weed control at 70 g/ha [2, 11]: 95 to 100%
pest or weed control at 140 g/ha [2, 11]: 95 to 100%
pest or weed control at 35 g/ha [2, 12]: 95 to 100%
pest or weed control at 70 g/ha [2, 12]: 95 to 100%
pest or weed control at 140 g/ha [2, 12]: 95 to 100%
pest or weed control at 35 g/ha [2, 13]: 85 to 94%
pest or weed control at 70 g/ha [2, 13]: 85 to 94%
pest or weed control at 140 g/ha [2, 13]: 95 to 100%
pest or weed control at 35 g/ha [2, 14]: 95 to 100%
pest or weed control at 70 g/ha [2, 14]: 95 to 100%
pest or weed control at 140 g/ha [2, 14]: 95 to 100%

COc1c(N)nc(-c2ccc3c(c2F)OC(F)(F)O3)nc1C(=O)O [Compound 66]
pest or weed control at 35 g/ha [1, 3]: 95 to 100%
pest or weed control at 70 g/ha [1, 3]: 95 to 100%
pest or weed control at 140 g/ha [1, 3]: 95 to 100%
pest or weed control at 35 g/ha [1, 4]: 75 to 84%
pest or weed control at 70 g/ha [1, 4]: 75 to 84%
pest or weed control at 140 g/ha [1, 4]: 85 to 94%
pest or weed control at 35 g/ha [1, 5]: 60 to 74%
pest or weed control at 70 g/ha [1, 5]: 60 to 74%
pest or weed control at 140 g/ha [1, 5]: 75 to 84%
pest or weed control at 35 g/ha [1, 6]: 30 to 44%
pest or weed control at 70 g/ha [1, 6]: 30 to 44%
pest or weed control at 140 g/ha [1, 6]: 30 to 44%
pest or weed control at 35 g/ha [1, 7]: 45 to 59%
pest or weed control at 70 g/ha [1, 7]: 60 to 74%
pest or weed control at 140 g/ha [1, 7]: 60 to 74%
pest or weed control at 35 g/ha [1, 8]: 0 to 29%
pest or weed control at 70 g/ha [1, 8]: 95 to 100%
pest or weed control at 140 g/ha [1, 8]: 95 to 100%
pest or weed control at 35 g/ha [2, 9]: 45 to 59%
pest or weed control at 70 g/ha [2, 9]: 85 to 94%
pest or weed control at 140 g/ha [2, 9]: 95 to 100%
pest or weed control at 35 g/ha [2, 10]: 60 to 74%
pest or weed control at 70 g/ha [2, 10]: 75 to 84%
pest or weed control at 140 g/ha [2, 10]: 85 to 94%
pest or weed control at 35 g/ha [2, 11]: 95 to 100%
pest or weed control at 70 g/ha [2, 11]: 95 to 100%
pest or weed control at 140 g/ha [2, 11]: 95 to 100%
pest or weed control at 35 g/ha [2, 12]: 75 to 84%
pest or weed control at 70 g/ha [2, 12]: 85 to 94%
pest or weed control at 140 g/ha [2, 12]: 95 to 100%
pest or weed control at 35 g/ha [2, 13]: 75 to 84%
pest or weed control at 70 g/ha [2, 13]: 75 to 84%
pest or weed control at 140 g/ha [2, 13]: 85 to 94%
pest or weed control at 35 g/ha [2, 14]: 95 to 100%
pest or weed control at 70 g/ha [2, 14]: 95 to 100%
pest or weed control at 140 g/ha [2, 14]: 95 to 100%
